test system: rat pleura (carrageenan-induced cell accumulation and edema formation); assay: modification of the standard carrageenan pleurisy assay (anti-inflammatory activity); assay type: in vivo, rat (Lewis male); settings: po, p.o. gavage to fasted rats 0.5 hr prior to intrapleural 50 μg carrageenan, exudate after 4 hr, read-out: p.o. ED50, Cells (50% inhibition of carrageenan-induced cell accumulation)
Method: The rats used in these experiments were Lewis males, weighing 160-180 g, assigned to groups consisting of 5 animals. Test compounds were given to fasted rats by oral gavage 0.5 hr prior to intrapleural injection of 50 μg carrageenan. After 4 hr, the pleural exudate was collected and the edema volume and cell number were determined. ED50 values were estimated by linear regression analysis, and represent the doses at which a given drug produced 50% inhibition of carrageenan-induced cell accumulation and edema formation within the rat pleura.

Which ED50 does the source give for `CNC(=O)/C=C1\CCc2c(Cl)cc(F)cc21` [Example 1, (E)-2-(4-Chloro-6-fluoro-1-indanylidene)-N-Methylacetamide] here?
The ED50 was 8 mg/kg.

For `NC(=O)/C=C1\CCc2c(Cl)cc(F)cc21` [Example 2, (E)-2-(4-Chloro-6-fluoro-1-indanylidene)acetamide], which ED50 is on record?
The ED50 was 11 mg/kg.

For `NC(=O)/C=C1\CCc2c(Cl)cc(Cl)cc21` [Example 3, (E)-2-(4,6-Dichloro-1-indanylidene)acetamide], which ED50 is on record?
The ED50 was 25 mg/kg.

With `NC(=O)/C=C1\CCc2c(F)cc(Cl)cc21` [Example 6, (E)-2-(6-Chloro-4-Fluoro-1-indanylidene)acetamide] as the compound, how does the ED50 read?
The ED50 was greater than 25 mg/kg.

With `NC(=O)/C=C1\CCc2c(Br)cc(F)cc21` [Example 7, (E)-2-(4-Bromo-6-Fluoro-1-indanylidene)acetamide] as the compound, how does the ED50 read?
The ED50 was greater than 20 mg/kg.

`Cc1cc(Cl)c2c(c1)/C(=C/C(N)=O)CC2` [Example 8, (E)-2-(4-Chloro-6-methyl-1-indanylidene)acetamide] was tested. Which ED50 did it give?
The ED50 was greater than 25 mg/kg.

same assay, conditions: po, p.o. gavage to fasted rats 0.5 hr prior to intrapleural 50 μg carrageenan, exudate after 4 hr, read-out: p.o. ED50, Edema (50% inhibition of edema formation)

Which ED50 does the source give for `CNC(=O)/C=C1\CCc2c(Cl)cc(F)cc21` [Example 1, (E)-2-(4-Chloro-6-fluoro-1-indanylidene)-N-Methylacetamide] here?
The ED50 was 5 mg/kg.

How did the ED50 turn out when `NC(=O)/C=C1\CCc2c(Cl)cc(F)cc21` [Example 2, (E)-2-(4-Chloro-6-fluoro-1-indanylidene)acetamide] was run?
The ED50 was 11 mg/kg.

With `NC(=O)/C=C1\CCc2c(Cl)cc(Cl)cc21` [Example 3, (E)-2-(4,6-Dichloro-1-indanylidene)acetamide] as the compound, how does the ED50 read?
The ED50 was 20 mg/kg.

`NC(=O)/C=C1\CCc2c(F)cc(Cl)cc21` [Example 6, (E)-2-(6-Chloro-4-Fluoro-1-indanylidene)acetamide] was tested. Which ED50 did it give?
Its ED50 is greater than 25 mg/kg.

For `NC(=O)/C=C1\CCc2c(Br)cc(F)cc21` [Example 7, (E)-2-(4-Bromo-6-Fluoro-1-indanylidene)acetamide], which ED50 is on record?
The ED50 was greater than 20 mg/kg.

For `Cc1cc(Cl)c2c(c1)/C(=C/C(N)=O)CC2` [Example 8, (E)-2-(4-Chloro-6-methyl-1-indanylidene)acetamide], which ED50 is on record?
The ED50 was greater than 25 mg/kg.

test system: rat hind limb (trypsin-induced hyperalgesia); assay: modification of the trypsin-induced rat hind limb hyperalgesic assay (mild analgesia); assay type: in vivo, rat (Lewis male); settings: po, 1 h, p.o. gavage to fasted rats 0.5 hours prior to subplantar 250 μg trypsin, evaluated one hour later, 4 seconds maximum latency, read-out: p.o. ED50 (mild analgesia, 50% inhibition of latency response)
Method: The rats used in these studies were Lewis male, weighing 160-180 g. and assigned to groups consisting of 5-6 animals. Test compounds were given to fasted rats by oral gavage 0.5 hours prior to the subplantar injection of 250 μg trypsin in one hind limb. One hour later the rats were evaluated for hyperalgesia using a F-shaped mechanical force clamp on the injected hind limb metatarsal area. Latency (seconds) to the algesic response (vocalisation or flight) was determined, with 4 seconds being the maximum latency allowed. ED50 values were estimated by linear regression analysis and represent the dose at which a given drug extended the latency response to produce 50% inhibition using the formula:
(4 sec.-Control Latency)-(4 sec.-Test Latency)/4 sec.--Control

Which ED50 does the source give for `CNC(=O)/C=C1\CCc2c(Cl)cc(F)cc21` [Example 1, (E)-2-(4-Chloro-6-fluoro-1-indanylidene)-N-Methylacetamide] here?
Its ED50 is 2 mg/kg.

With `NC(=O)/C=C1\CCc2c(Cl)cc(F)cc21` [Example 2, (E)-2-(4-Chloro-6-fluoro-1-indanylidene)acetamide] as the compound, how does the ED50 read?
Its ED50 is 4 mg/kg.

How did the ED50 turn out when `NC(=O)/C=C1\CCc2c(Cl)cc(Cl)cc21` [Example 3, (E)-2-(4,6-Dichloro-1-indanylidene)acetamide] was run?
Its ED50 is 4 mg/kg.

How did the ED50 turn out when `NC(=O)/C=C1\CCc2c(F)cc(Cl)cc21` [Example 6, (E)-2-(6-Chloro-4-Fluoro-1-indanylidene)acetamide] was run?
The ED50 was greater than 10 mg/kg.

test system: phalanges of one hind limb (algesic response); assay: phalanges algesic assay (strong analgesia); assay type: in vivo, rat (Lewis male); settings: Rattus norvegicus, po, 1 h; p.o. gavage to fasted rats; mechanical force clamp one hour later; 3 seconds maximum; read-out: p.o. ED50 (strong analgesia, 50% inhibition of latency response)
Method: The rats used in these studies were Lewis male weighing 160-180 g and assigned to groups of 5-6 animals. The phalanges algesic assay is an algesic test (no hyperalgesia). Test compounds were given to fasted rats by oral gavage. One hour later an F-shaped mechanical force clamp was applied to the phalanges of one hind limb which initiated an algesic response (vocalisation or flight). Latency (seconds) to the algesic response was determined with 3 seconds maximum allowed time. ED50 values were estimated by linear regression analysis and represent the dose at which a given compound extended the latency response to produce 50% inhibition using the formula:
(3 sec.-Control Latency)-(3 sec.-Test Latency)/3 sec.-Control

Which ED50 does the source give for `CNC(=O)/C=C1\CCc2c(Cl)cc(F)cc21` [Example 1, (E)-2-(4-Chloro-6-fluoro-1-indanylidene)-N-Methylacetamide] here?
Its ED50 is 60 mg/kg.

`NC(=O)/C=C1\CCc2c(Cl)cc(F)cc21` [Example 2, (E)-2-(4-Chloro-6-fluoro-1-indanylidene)acetamide] was tested. Which ED50 did it give?
The ED50 was 30 mg/kg.

For `NC(=O)/C=C1\CCc2c(Cl)cc(Cl)cc21` [Example 3, (E)-2-(4,6-Dichloro-1-indanylidene)acetamide], which ED50 is on record?
The ED50 was greater than 45 mg/kg.

For `NC(=O)/C=C1\CCc2c(F)cc(Cl)cc21` [Example 6, (E)-2-(6-Chloro-4-Fluoro-1-indanylidene)acetamide], which ED50 is on record?
Its ED50 is greater than 45 mg/kg.

With `NC(=O)/C=C1\CCc2c(Br)cc(F)cc21` [Example 7, (E)-2-(4-Bromo-6-Fluoro-1-indanylidene)acetamide] as the compound, how does the ED50 read?
Its ED50 is greater than 45 mg/kg.

same assay, conditions: p.o. gavage to fasted rats; mechanical force clamp one hour later; 3 seconds maximum

`Cc1cc(Cl)c2c(c1)/C(=C/C(N)=O)CC2` [Example 8, (E)-2-(4-Chloro-6-methyl-1-indanylidene)acetamide] was tested. Which “p.o. ED50 (strong analgesia, 50% inhibition of latency response)” value did it give?
Its value is “Inactive at 45”.
